Test results: patent publication US10766866B2, “Deterrents for arthropods and marine organisms” (priority 2017, dated 2020)

Legend:
Assay in all cases: OctR activation: change in intracellular calcium (CALCIUM 6QR dye, FlexStation 3) in stably transfected mammalian cells
[1] = system: IsTOctR (Ixodes octopamine receptor), cloned α-like OctR; assay type: cell-based, Ixodes scapularis; conditions: agonist, read-out: IsTOctR (Ixodes octopamine receptor) EC50
Text: (§1) Functional expression of cloned arthropod OctRs and human α2-ARs: The cDNAs for α-like OctRs from different arthropod species (e.g., Anopheles gambiae, Aedes aegypti, Periplaneta americana, Drosophila melanogaster, Ixodes scapularis, Balanus improvises) and for α2-AR subtypes from humans were individually subcloned into mammalian expression vectors. These plasmids, which harbor a resistance gene for the selection drug G418 and the cDNA sequence for the receptor of interest, were individually transfected into mammalian cells using a calcium phosphate precipitation method. G418 selection was then employed to generated stable clonal cell lines. Utilizing rapid filtration radioligand binding techniques, the cell surface density of receptor expression of the individual clonal cell lines was determined at equilibrium and those with similar high levels of expression were selected for further experiments. Briefly, binding conditions were 50 mM Tris binding buffer pH 7.4 at 25° C. and an ice-cold wash buffer 10 mM Tris-HCl, pH 7.4). The radioligand was [3H]rauwolscine and non-specific binding was determined in the presence of 10 μM atipamezole. Following the addition of membranes prepared from the clonal cell lines, samples were mixed and allowed 2 hr. to reach equilibrium before rapid filtration and washing through 0.3% PEI-treated GF/C filters. The radioactivity remaining on the filters was quantified by scintillation counting. Receptor density (Bmax) was back calculated knowing the specific activity of the radioligand and applying the equation for a square hyperbola model: Bmax=(Y·(KD+X))/X, where Y is [specifically bound radioligand] and X=[radio ligand concentration]. The affinity (KD) for the radioligand for each receptor was determined in separate saturation isotherm binding experiments using the same binding conditions as describe above.
(§2) Measurement of OctR activation by measuring changes in intracellular calcium: Activation of arthropod α-like OctRs increases intracellular calcium via a Gq-coupling mechanism. This involves activation of phospholipase C leading to an increase in intracellular inositol triphosphate (IP3) which then activates IP3-gated calcium channels in the endoplasmic reticulum causing a transient rise in intracellular calcium. These changes in intracellular calcium upon OctR activation were measured by loading cells with intracellular calcium sensitive dye CALCIUM 6QR and reading the change in calcium-induced fluorescent signal over time on a FlexStation 3 microplate reader.

[2] = biological target: T1, AgAOctR (Anopheles octopamine receptor isoform A), cloned α-like OctR (Anopheles gambiae, UniProt Q7PRZ8); assay type: cell-based; conditions: agonist
T1 construct: Gq calcium readout
T1 sequence (Q7PRZ8 1-592): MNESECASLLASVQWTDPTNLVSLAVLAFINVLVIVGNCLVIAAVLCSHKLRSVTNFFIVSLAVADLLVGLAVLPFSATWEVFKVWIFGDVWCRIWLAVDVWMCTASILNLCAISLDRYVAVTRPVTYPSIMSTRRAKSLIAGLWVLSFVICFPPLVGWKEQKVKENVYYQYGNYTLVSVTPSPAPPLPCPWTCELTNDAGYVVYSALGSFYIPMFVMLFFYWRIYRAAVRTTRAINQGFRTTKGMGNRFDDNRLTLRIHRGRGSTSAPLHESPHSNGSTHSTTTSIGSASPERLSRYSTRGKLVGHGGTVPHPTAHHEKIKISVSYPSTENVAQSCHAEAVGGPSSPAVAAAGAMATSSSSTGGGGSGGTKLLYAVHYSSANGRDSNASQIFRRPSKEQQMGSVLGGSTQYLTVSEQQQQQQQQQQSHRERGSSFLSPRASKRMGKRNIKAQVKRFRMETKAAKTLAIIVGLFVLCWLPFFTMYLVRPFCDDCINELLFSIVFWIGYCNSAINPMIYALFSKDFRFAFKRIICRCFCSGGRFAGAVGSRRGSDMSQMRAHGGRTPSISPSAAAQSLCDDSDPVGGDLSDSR
Procedure, shortened: (§3)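 Gq-mediated intracellular calcium rises in stable mammalian cell clones were measured by CALCIUM 6QR fluorescence on a FlexStation 3.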

[3] = biological target: T2, PaOctR (Periplaneta octopamine receptor), cloned α-like OctR (Periplaneta americana, UniProt Q7YWB7); assay type: cell-based; conditions: agonist
T2 construct: Gq calcium readout
T2 sequence (Q7YWB7 1-628): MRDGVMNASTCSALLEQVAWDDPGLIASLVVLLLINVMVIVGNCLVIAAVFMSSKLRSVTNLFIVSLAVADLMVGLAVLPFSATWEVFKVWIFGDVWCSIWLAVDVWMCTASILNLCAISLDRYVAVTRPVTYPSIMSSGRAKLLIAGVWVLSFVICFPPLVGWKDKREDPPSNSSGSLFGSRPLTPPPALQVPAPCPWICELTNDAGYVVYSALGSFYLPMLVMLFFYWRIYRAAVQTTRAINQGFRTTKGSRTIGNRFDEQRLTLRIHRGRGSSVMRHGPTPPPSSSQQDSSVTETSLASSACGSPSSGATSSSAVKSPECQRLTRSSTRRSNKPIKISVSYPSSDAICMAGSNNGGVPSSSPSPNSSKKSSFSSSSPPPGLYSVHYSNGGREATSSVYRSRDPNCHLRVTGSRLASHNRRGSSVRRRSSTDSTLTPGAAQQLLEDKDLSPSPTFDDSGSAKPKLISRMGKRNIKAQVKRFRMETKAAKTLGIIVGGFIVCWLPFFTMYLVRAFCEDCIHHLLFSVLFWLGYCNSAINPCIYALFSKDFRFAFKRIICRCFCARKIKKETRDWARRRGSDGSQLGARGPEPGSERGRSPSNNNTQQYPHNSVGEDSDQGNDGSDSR
Procedure, shortened: as §3

[4] = system: AeOctR (Aedes octopamine receptor), cloned α-like OctR; assay type: cell-based, Aedes aegypti; conditions: agonist
Text: as §1, §2

C=C(c1cnc[nH]1)c1cccc(C)c1C [AZ0027]
EC50 [1]: 0.51 ± 0.28 nM | EC50 [2]: 0.013 ± 0.0046 nM | EC50 [3]: 0.44 ± 0.23 nM | EC50 [4]: 12 ± 3.2 nM
